Assay [1] deals with T1, Recombinant STAT3 protein (STAT3 (G127-I722)) (Homo sapiens, UniProt P40763).
T1 construct: Recombinant STAT3 protein (STAT3 (G127-I722))
Briefly: STAT3 Fluorescence Polarization (FP) Assay. It is filed as binding. As to conditions: STAT3 (G127-I722) 25 nM, probe 5-FAM-GpYLPQTV-NH2 2 nM, 45-minute incubation; read-out: STAT3 (FP assay IC50 class). A digest of the protocol:
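Compounds in serial dilution receive a premix of STAT3 (G127-I722, 25 nM) and fluorescent phosphotyrosine peptide 5-FAM-GpYLPQTV-NH2 (2 nM) at pH 7.4. After 45 min at room temperature, FP is measured and IC50 derived by nonlinear regression.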
In general terms: In fluorescence polarisation assays a small probe gives low polarisation when free and higher when bound to something large.

Assay [2] concerns the target T2, Recombinant STAT6 protein (STAT6 (W123-T658)) (Homo sapiens, UniProt P42226).
T2 construct: Recombinant STAT6 protein (STAT6 (W123-T658))
T2 sequence (P42226 123-658): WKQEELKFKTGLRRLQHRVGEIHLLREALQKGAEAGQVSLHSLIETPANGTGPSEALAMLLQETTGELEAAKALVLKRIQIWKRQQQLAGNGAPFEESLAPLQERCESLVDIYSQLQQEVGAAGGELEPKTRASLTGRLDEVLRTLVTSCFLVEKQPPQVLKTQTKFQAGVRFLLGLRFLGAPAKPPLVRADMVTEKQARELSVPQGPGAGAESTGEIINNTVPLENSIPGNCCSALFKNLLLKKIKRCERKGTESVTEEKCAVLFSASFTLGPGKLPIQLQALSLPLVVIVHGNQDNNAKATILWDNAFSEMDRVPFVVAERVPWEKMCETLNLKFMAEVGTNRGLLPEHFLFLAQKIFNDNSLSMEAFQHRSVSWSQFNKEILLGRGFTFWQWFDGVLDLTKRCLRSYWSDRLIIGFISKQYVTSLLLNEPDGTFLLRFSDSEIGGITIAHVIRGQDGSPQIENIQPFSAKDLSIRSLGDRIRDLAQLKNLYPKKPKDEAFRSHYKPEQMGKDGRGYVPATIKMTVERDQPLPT
Briefly: STAT6 Fluorescence Polarization (FP) Assay. As to conditions: STAT6 (W123-T658) 250 nM, probe 5-FAM-Ap[…]-NH2 2 nM, 45-minute incubation; read-out: STAT6 (FP assay IC50 class). Type of assay: binding. A digest of the protocol:
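Probe displacement format: serially diluted compounds incubated 45 min at room temperature with 2 nM fluorescent phosphopeptide and 250 nM STAT6 (W123-T658) in pH 7.4 HEPES buffer, 1% DMSO final. Polarization signal plotted against log concentration, IC50 fitted by nonlinear regression.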

A value given as a limit tells only on which side of the number the result lay.

The IC50 is the concentration needed to halve the response being measured.

T1 sequence (P40763 127-722): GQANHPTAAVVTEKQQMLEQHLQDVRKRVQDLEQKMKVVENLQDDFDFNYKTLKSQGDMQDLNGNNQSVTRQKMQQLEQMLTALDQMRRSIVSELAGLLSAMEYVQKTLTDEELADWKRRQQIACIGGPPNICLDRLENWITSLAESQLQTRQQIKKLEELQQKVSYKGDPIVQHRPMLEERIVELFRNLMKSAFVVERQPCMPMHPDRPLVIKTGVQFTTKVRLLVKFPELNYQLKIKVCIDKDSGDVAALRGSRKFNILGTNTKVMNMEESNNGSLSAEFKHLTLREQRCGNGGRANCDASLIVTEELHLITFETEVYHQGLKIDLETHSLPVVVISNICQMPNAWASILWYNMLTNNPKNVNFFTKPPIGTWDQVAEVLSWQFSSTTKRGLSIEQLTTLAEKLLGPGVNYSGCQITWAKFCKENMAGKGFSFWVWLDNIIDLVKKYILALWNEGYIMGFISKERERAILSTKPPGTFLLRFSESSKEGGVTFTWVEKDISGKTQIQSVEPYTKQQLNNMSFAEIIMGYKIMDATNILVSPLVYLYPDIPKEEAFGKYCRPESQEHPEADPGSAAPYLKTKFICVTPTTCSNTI

With `C/C1=C/C[C@H](NC(=O)c2cc3cc(CP(=O)(O)O)ccc3s2)C(=O)N2[C@H](CC[C@H]2C(=O)N2CC(c3cnccc3C)C2)C1` [Compound 642, ((2-(((3S,6S,10aR,Z)-9-methyl-3-(3-(4-methylpyridin-3-yl)azetidine-1-carbonyl)-5-oxo-1,2,3,5,6,7,10,10a-octahydropyrrolo[1,2-a]azocin-6-yl)carbamoyl)benzo [b]thiophen-5-yl)methyl) phosphonic acid], the 50% inhibitory concentration (IC50) in assay [1] was 0.1 to 1 µM; in assay [2] it was 3 to 30 µM.

Consider `C/C1=C/[C@H]2CC[C@@H](C(=O)N3CC(c4cnccc4C)C3)N2C(=O)[C@@H](NC(=O)c2cc3cc(C(F)(F)P(=O)(O)O)ccc3s2)CC1` [Compound 643, (difluoro(2-(((3S,6S,10aR,Z)-9-methyl-3-(3-(4-methylpyridin-3-yl)azetidine-1-carbonyl)-5-oxo-1,2,3,5,6,7,8,10a-octahydropyrrolo[1,2-a]azocin-6-yl)carbamoyl)benzo [b]thiophen-5-yl)methyl) phosphonic acid], for which the IC50 was below 0.1 µM in assay [1] and 0.3 to 3 µM in assay [2].

For `C/C1=C/[C@H]2CC[C@@H](C(=O)N3CC(c4cnccc4C)C3)N2C(=O)[C@@H](NC(=O)c2cc3cc(CP(=O)(O)O)ccc3s2)CC1` [Compound 644, ((2-(((3S,6S,10aR,Z)-9-methyl-3-(3-(4-methylpyridin-3-yl)azetidine-1-carbonyl)-5-oxo-1,2,3,5,6,7,8,10a-octahydropyrrolo[1,2-a]azocin-6-yl)carbamoyl)benzo [b]thiophen-5-yl)methyl) phosphonic acid], the IC50 in assay [1] lay in the range of 0.1 to 1 µM; in assay [2], 3 to 30 µM.

Take `O=C(N[C@H]1CCCC[C@H]2CC[C@@H](C(=O)NC(CO)c3c[nH]c4ncccc34)N2C1=O)c1cc2cc(C(F)(F)P(=O)(O)O)ccc2s1` (stereo partly drawn) [Compound 645, (difluoro(2-(((3S,6S,10aS)-3-((2-hydroxy-1-(1H-pyrrolo[2,3-b]pyridin-3-yl)ethyl)carbamoyl)-5-oxodecahydropyrrolo [1,2-a]azocin-6-yl)carbamoyl)benzo [b]thiophen-5-yl)methyl) phosphonic acid]: the IC50 in assay [1] lay in the range of 0.1 to 1 µM; in assay [2] it was 3 to 30 µM.

`Cc1cc(=O)[nH]cc1C1CN(C(=O)[C@@H]2CC[C@@H]3CCC[C@H](NC(=O)c4cc5cc(CP(=O)(O)O)ccc5s4)C(=O)N32)C1` [Compound 646, ((2-(((3S,6S,9aS)-3-(3-(4-methyl-6-oxo-1,6-dihydropyridin-3-yl)azetidine-1-carbonyl)-5-oxooctahydro-1H-pyrrolo[1,2-a]azepin-6-yl)carbamoyl)benzo [b]thiophen-5-yl)methyl) phosphonic acid]: the IC50 lay in the range of 1 to 10 µM in assay [1] and 3 to 30 µM in assay [2].

Take `Cc1ccncc1C1CN(C(=O)[C@@H]2CC[C@@H]3CCCC[C@H](NC(=O)c4cc5cc(CP(=O)(O)O)ccc5s4)C(=O)N32)C1` [Compound 647, ((2-(((3S,6S,10aS)-3-(3-(4-methylpyridin-3-yl)azetidine-1-carbonyl)-5-oxodecahydropyrrolo [1,2-a]azocin-6-yl)carbamoyl)benzo [b]thiophen-5-yl)methyl) phosphonic acid]: the 50% inhibitory concentration (IC50) in assay [1] was in the range of 0.1 to 1 µM; in assay [2], 3 to 30 µM.

Regarding `Cc1nccnc1C1CN(C(=O)[C@@H]2CC[C@@H]3CCC[C@H](NC(=O)c4cc5cc(C(F)(F)P(=O)(O)O)ccc5s4)C(=O)N32)C1` [Compound 648, (difluoro(2-(((3S,6S,9aS)-3-(3-(3-methylpyrazin-2-yl)azetidine-1-carbonyl)-5-oxooctahydro-1H-pyrrolo[1,2-a]azepin-6-yl)carbamoyl)benzo [b]thiophen-5-yl)methyl) phosphonic acid], the results for the IC50 in assay [1] and in assay [2] were below 0.1 µM and 3 to 30 µM, respectively.
